# Results: ChEMBL document CHEMBL5143508, “Design, synthesis and biological evaluation of novel o-aminobenzamide derivatives as potential anti-gastric cancer agents in vitro and in vivo” (Eur J Med Chem, 2022)
# The source made the active and inactive calls. No cut-off for these calls is given here.
# What was measured:
# HGC-27 [1] = experiment: Induction of apoptosis in human HGC-27 cells assessed as upregulation in cleaved caspase-3 expression at 0.5 to 8 uM incubated for 48 hrs by Western blot analysis; assay type: functional, cell-based; details: dose 0.5-8 µM
# HGC-27 [2] = experiment: Induction of apoptosis in human HGC-27 cells assessed as upregulation in cleaved PARP expression at 0.5 to 8 uM incubated for 48 hrs by Western blot analysis; assay type: functional, cell-based; details: dose 0.5-8 µM
# HGC-27 [3] = experiment: Induction of apoptosis in human HGC-27 cells assessed as upregulation in Bax expression at 0.5 to 8 uM incubated for 48 hrs by Western blot analysis; assay type: functional, cell-based; details: dose 0.5-8 µM
# HGC-27 [4] = experiment: Induction of apoptosis in human HGC-27 cells assessed as necrotic cells at 2 uM incubated for 48 hrs by annexin V FITC/propidium iodide staining based flow cytometry (reference value: 1.24 %); assay type: functional
# HGC-27 [5] = experiment: Induction of apoptosis in human HGC-27 cells assessed as late apoptotic cells at 2 uM incubated for 48 hrs by annexin V FITC/propidium iodide staining based flow cytometry (reference value: 5.14 %); assay type: functional
# HGC-27 [6] = experiment: Induction of apoptosis in human HGC-27 cells assessed as necrotic cells at 8 uM incubated for 48 hrs by annexin V FITC/propidium iodide staining based flow cytometry (reference value: 1.24 %); assay type: functional
# HGC-27 [7] = experiment: Induction of apoptosis in human HGC-27 cells assessed as upregulation in cleaved caspase-9 expression at 0.5 to 8 uM incubated for 48 hrs by Western blot analysis; assay type: functional, cell-based; details: dose 0.5-8 µM
# HGC-27 [8] = experiment: Induction of cell cycle arrest in human HGC-27 cells assessed as reduction in accumulation of cells at G0/G1 phase at 0.5 to 8 uM incubated for 24 hrs by PI staining based flow cytometry analysis; assay type: functional; details: dose 0.5-8 µM
# HGC-27 [9] = experiment: Induction of apoptosis in human HGC-27 cells assessed as viable cells at 2 uM incubated for 48 hrs by annexin V FITC/propidium iodide staining based flow cytometry (reference value: 93.0 %); assay type: functional; details: read-out: Activity
# MGC-803 [10] = experiment: Induction of apoptosis in human MGC-803 cells assessed as late apoptotic cells at 2.5 uM incubated for 48 hrs by annexin V FITC/propidium iodide staining based flow cytometry (reference value: 4.07 %); assay type: functional
# MGC-803 [11] = experiment: Induction of cell cycle arrest in human MGC-803 cells assessed as reduction in accumulation of cells at S phase at 2.5 to 10 uM incubated for 24 hrs by PI staining based flow cytometry analysis; assay type: functional; details: dose 2.5-10 µM
# HGC-27 [12] = experiment: Induction of apoptosis in human HGC-27 cells assessed as upregulation in Bax expression at 0.1 to 1.6 uM incubated for 48 hrs by Western blot analysis; assay type: functional, cell-based; details: dose 0.1-1.6 µM
# AGS = experiment: cells; assay type: functional, cell-based; details: Homo sapiens, 72 h
# Description: Cytotoxicity against human AGS cells assessed as inhibition of cell growth incubated for 72 hrs by MTT assay
# HGC-27 [13] = experiment: Induction of cell cycle arrest in human HGC-27 cells assessed as reduction in accumulation of cells at G2/M phase at 0.1 to 1.6 uM incubated for 24 hrs by PI staining based flow cytometry analysis; assay type: functional; details: dose 0.1-1.6 µM
# HGC-27 [14] = experiment: Induction of apoptosis in human HGC-27 cells assessed as upregulation in cleaved PARP expression at 0.1 to 1.6 uM incubated for 48 hrs by Western blot analysis; assay type: functional, cell-based; details: dose 0.1-1.6 µM
# HGC-27 [15] = experiment: Induction of apoptosis in human HGC-27 cells assessed as upregulation in cleaved caspase-9 expression at 0.1 to 1.6 uM incubated for 48 hrs by Western blot analysis; assay type: functional, cell-based; details: dose 0.1-1.6 µM
# HGC-27 [16] = experiment: Induction of apoptosis in human HGC-27 cells assessed as viable cells at 0.4 uM incubated for 48 hrs by annexin V FITC/propidium iodide staining based flow cytometry (reference value: 93.0 %); assay type: functional; details: read-out: Activity
# [17] = Toxicity in BALB/c mouse xenografted with human HGC-27 cells assessed as RBC level at 150 mg/kg, po bid for 19 days; assay type: organism-based, Erythrocyte; details: in vivo, 456 h, time 19 day
# HGC-27 [18] = experiment: Antitumor activity against human HGC-27 cells xenografted in BALB/c mouse assessed as tumor growth inhibition at 150 mg/kg, po bid administered for 19 days; assay type: functional; details: HGC-27, 456 h, time 19 day, read-out: TGI
# HGC-27 [19] = experiment: Induction of apoptosis in human HGC-27 cells assessed as necrotic cells at 1.6 uM incubated for 48 hrs by annexin V FITC/propidium iodide staining based flow cytometry (reference value: 1.24 %); assay type: functional
# HGC-27 [20] = experiment: Induction of apoptosis in human HGC-27 cells assessed as late apoptotic cells at 1.6 uM incubated for 48 hrs by annexin V FITC/propidium iodide staining based flow cytometry (reference value: 5.14 %); assay type: functional
# [21] = Toxicity in BALB/c mouse xenografted with human HGC-27 cells assessed as red blood cell distribution width at 75 mg/kg, po bid for 19 days; assay type: organism-based; details: in vivo, 456 h, time 19 day
# [22] = Toxicity in BALB/c mouse xenografted with human HGC-27 cells assessed as platelet distribution width at 75 mg/kg, po bid for 19 days; assay type: organism-based; details: in vivo, 456 h, time 19 day
# [23] = Toxicity in BALB/c mouse xenografted with human HGC-27 cells assessed as RBC level at 75 mg/kg, po bid for 19 days; assay type: organism-based, Erythrocyte; details: in vivo, 456 h, time 19 day
# HGC-27 [24] = experiment: Induction of apoptosis in human HGC-27 cells assessed as upregulation in cleaved caspase-3 expression at 0.1 to 1.6 uM incubated for 48 hrs by Western blot analysis; assay type: functional, cell-based; details: dose 0.1-1.6 µM
# MGC-803 [25] = experiment: Induction of cell cycle arrest in human MGC-803 cells assessed as reduction in accumulation of cells at G2/M phase at 5 to 20 uM incubated for 24 hrs by PI staining based flow cytometry analysis; assay type: functional; details: dose 5-20 µM
# HGC-27 [26] = experiment: In vivo induction of apoptosis in human HGC-27 cells xenografted in BALB/c mouse assessed as increase in cleaved caspase-9 expression at 75 to 150 mg/kg , po bid administered for 19 days and measured by immunohistochemical analysis; assay type: functional, organism-based; details: dose 75-150 mg/kg, time 19.0 day
# [27] = Acute toxicity in Kunming mouse assessed as mouse survival at 1000 mg/kg, po measured after 14 days; assay type: organism-based; details: in vivo, 336 h, time 14 day
# MGC-803 [28] = experiment: Induction of apoptosis in human MGC-803 cells assessed as late apoptotic cells at 20 uM incubated for 48 hrs by annexin V FITC/propidium iodide staining based flow cytometry (reference value: 4.07 %); assay type: functional
# MGC-803 [29] = experiment: Induction of apoptosis in human MGC-803 cells assessed as viable cells at 20 uM incubated for 48 hrs by annexin V FITC/propidium iodide staining based flow cytometry (reference value: 94.4 %); assay type: functional; details: read-out: Activity
# [30] = Toxicity in BALB/c mouse xenografted with human HGC-27 cells assessed as hematocrit level at 150 mg/kg, po bid for 19 days; assay type: organism-based; details: in vivo, 456 h, time 19 day
# BGC-823 = experiment: cells; assay type: functional, cell-based; details: Homo sapiens, BGC-823, 72 h
# Description: Cytotoxicity against human BGC-823 cells assessed as inhibition of cell growth incubated for 72 hrs by MTT assay
# HGC-27 [31] = experiment: Induction of apoptosis in human HGC-27 cells assessed as viable cells at 1.6 uM incubated for 48 hrs by annexin V FITC/propidium iodide staining based flow cytometry (reference value: 93.0 %); assay type: functional; details: read-out: Activity
# in vitro = details: human, WI-38 cells
# Description: Cytotoxicity against human WI-38 cells assessed as inhibition of cell growth incubated for 72 hrs by MTT assay
# MGC-803 [32] = experiment: Induction of cell cycle arrest in human MGC-803 cells assessed as reduction in accumulation of cells at G0/G1 phase at 5 to 20 uM incubated for 24 hrs by PI staining based flow cytometry analysis; assay type: functional; details: dose 5-20 µM
smiles,measurement,setting,value
O=C(NCc1ccc(NC(=O)c2ccccc2N2CCCC2)cc1)OCc1cccnc1,Activity,HGC-27 [1],Active
same,Activity,HGC-27 [2],Active
same,Activity,HGC-27 [3],Active
same,Activity,HGC-27 [4],12.1%
same,Activity,HGC-27 [5],55.9%
same,Activity,HGC-27 [6],11.1%
same,Activity,HGC-27 [7],Active
same,Activity,HGC-27 [8],Active
same,viability at 2 µM,HGC-27 [9],30.4%
same,Activity,MGC-803 [10],14.6%
same,Activity,MGC-803 [11],Active
O=C(NCc1ccc(NC(=O)c2cc(F)ccc2N2CCCC2)cc1)OCc1cccnc1,Activity,HGC-27 [12],Active
same,IC50,AGS,23.3 µM
same,Activity,HGC-27 [13],Active
same,Activity,HGC-27 [14],Active
same,Activity,HGC-27 [15],Active
same,viability at 0.4 µM,HGC-27 [16],70.7%
same,Activity,[17],10.34 10^12/L
same,inhibition in vivo at 150 mg/kg,HGC-27 [18],68.9%
same,Activity,HGC-27 [19],16.9%
same,Activity,HGC-27 [20],69.4%
same,Activity,[21],24.4%
same,Activity,[22],16.93
same,Activity,[23],11.74 10^12/L
same,Activity,HGC-27 [24],Active
same,Activity,MGC-803 [25],Active
same,Activity,HGC-27 [26],Active
same,Activity,[27],Non-Toxic
same,Activity,MGC-803 [28],19.8%
same,viability at 20 µM,MGC-803 [29],60.7%
same,Activity,[30],55.38%
same,IC50,BGC-823,14.8 µM
same,viability at 1.6 µM,HGC-27 [31],13.4%
same,IC50 at 72 h,in vitro,> 100 µM
same,Activity,MGC-803 [32],Active
